Experimental data: article PMC6010130, “Inhibition of Leishmania infantum trypanothione reductase by diaryl sulfide derivatives” (Journal of Enzyme Inhibition and Medicinal Chemistry, 2017)

Key:
[1] = biological target: T1, trypanothione reductase (TR) (Leishmania infantum, UniProt A4HSF7); assay: X-ray crystal structure ([…] Å); format: binding
T1 construct: gene TRYR

[2] = biological target: T1, trypanothione reductase (TR); assay: X-ray crystal structure ([…] Å, soaked oxidized TR); Ki from Dixon plot of the purified enzyme (NADPH oxidation at […] nm); format: biochemical

T1 sequence (A4HSF7 1-491): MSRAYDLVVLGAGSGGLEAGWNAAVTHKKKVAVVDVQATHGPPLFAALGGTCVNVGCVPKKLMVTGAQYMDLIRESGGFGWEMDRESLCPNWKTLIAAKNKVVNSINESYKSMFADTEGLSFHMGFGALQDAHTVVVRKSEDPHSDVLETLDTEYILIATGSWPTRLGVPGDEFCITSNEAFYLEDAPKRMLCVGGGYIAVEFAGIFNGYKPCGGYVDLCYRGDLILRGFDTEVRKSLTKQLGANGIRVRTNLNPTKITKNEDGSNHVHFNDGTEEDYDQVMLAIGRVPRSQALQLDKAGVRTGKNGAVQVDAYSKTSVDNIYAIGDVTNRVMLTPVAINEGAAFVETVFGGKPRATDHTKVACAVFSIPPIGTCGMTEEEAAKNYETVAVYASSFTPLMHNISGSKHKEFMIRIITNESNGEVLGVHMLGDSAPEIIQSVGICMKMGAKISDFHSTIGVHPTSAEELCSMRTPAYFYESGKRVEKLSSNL

Row | SMILES | X-ray crystal structure (3.5 Å) [1] | Ki [2] [µM]
1 | Cc1cc2nc3c(=O)[nH]c(=O)nc-3n(C[C@H](O)[C@H](O)[C@H](O)COP(=O)(O)OP(=O)(O)OC[C@H]3O[C@@H](n4cnc5c(N)ncnc54)[C@H](O)[C@@H]3O)c2cc1C [FAD] | Each monomer contains a FAD molecule. | 
2 | CCC(C)Oc1cc(N)nc(Sc2cccc(Cl)c2)n1 (centres unmarked) [RDS 777, 6-(sec-butoxy)-2-((3-chlorophenyl)thio)pyrimidin-4-amine] |  | 0.25 ± 0.18
